# Measurements published in ChEMBL document CHEMBL4507326, “Data for DCP probe TP-030-2” (2021).
# Active and inactive are the calls of the source. The calls are words filed in the database; no cut-off is given here.
# How the values were obtained:
# [1] = biological target: L-type calcium channel, dihydropyridine site (Cav1.2 alpha-1C) (Homo sapiens, UniProt Q13936); test: Inhibition of Calcium Channel L-Type, Dihydropyridine at 10 µM in the Eurofins-Panlabs radioligand binding assay (Eurofins_assay_214600); parameters: ligand concentration 0.1 nM, non-specific ligand with concentration 1 µM Nitrendipine, incubation time 90 min, incubation temperature 25 °C; conditions: Wistar, rat, rat cerebral cortex preparation, probe [3H] Nitrendipine; compound concentration 10 uM; target entry is the homologue from another species
# [2] = biological target: Receptor-interacting serine/threonine-protein kinase 1 (Homo sapiens, UniProt Q13546); test: TR-FRET (human RIPK1)
# [3] = biological target: Alpha-1A adrenergic receptor (Homo sapiens) (UniProt P35348); test: Inhibition of Adrenergic alpha1A at compound concentration of 10.0 uM in the Eurofins-Panlabs radioligand binding assay (Eurofins_assay_203110); parameters: ligand concentration 0.25 nM; conditions: Rattus norvegicus; Compound concentration 10.0 uM
# [4] = biological target: Tyrosine-protein kinase ABL1 (Homo sapiens, UniProt P00519); test: Abl(ABL1IHY1) Takeda global kinase panel
# [5] = biological target: G protein-coupled receptor kinase 3 (Homo sapiens, UniProt P35626); test: BARK2 [GRK3(ADR2LGG5)] Takeda global kinase panel
# [6] = biological target: Cytoplasmic tyrosine-protein kinase BMX (Homo sapiens, UniProt P51813); test: Etk [BMX(BMX1CGF1)] Takeda global kinase panel
# [7] = biological target: Serine/threonine-protein kinase MRCK alpha (Homo sapiens, UniProt Q5VT25); test: MRCKalpha(CD4ALGY1) Takeda global kinase panel
# [8] = biological target: Serine/threonine-protein kinase Chk2 (Homo sapiens, UniProt O96017); test: CHK2(CHE2LGY1) Takeda global kinase panel
# [9] = biological target: Tyrosine-protein kinase CSK (Homo sapiens, UniProt P41240); test: CSK(CSK1LGF1) Takeda global kinase panel
# [10] = biological target: Casein kinase II subunit alpha' (Homo sapiens, UniProt P19784); test: CK2alpha2(C2A2LGK1) Takeda global kinase panel
# [11] = biological target: Epidermal growth factor receptor (Homo sapiens, UniProt P00533); test: EGFR(EGFRMGB1) Takeda global kinase panel
# eIF-2-alpha kinase GCN2 = eIF-2-alpha kinase GCN2 (Homo sapiens, UniProt Q9P2K8); test: GCN2(EIK4PHK1) Takeda global kinase panel
# Ephrin type-A receptor 1 = Ephrin type-A receptor 1 (Homo sapiens, UniProt P21709); test: EphA1(EPA1LGY1) Takeda global kinase panel
# Ephrin type-B receptor 4 = Ephrin type-B receptor 4 (Homo sapiens, UniProt P54760); test: EphB4(EPB4LGY1) Takeda global kinase panel
# [12] = biological target: Receptor tyrosine-protein kinase erbB-4 (Homo sapiens, UniProt Q15303); test: HER4(ERB4CGF1) Takeda global kinase panel
# [13] = biological target: Tyrosine-protein kinase Fgr (Homo sapiens, UniProt P09769); test: Fgr(FGR1LGF1) Takeda global kinase panel
# [14] = biological target: Serine/threonine-protein kinase ICK (Homo sapiens, UniProt Q9UPZ9); test: ICK(ICK1LGP1) Takeda global kinase panel
# [15] = biological target: Insulin-like growth factor 1 receptor (Homo sapiens, UniProt P08069); test: IGF1R(IGF1LGF1) Takeda global kinase panel
# [16] = biological target: Tyrosine-protein kinase Lck (Homo sapiens, UniProt P06239); test: Lck(LCK1LGF1) Takeda global kinase panel
# [17] = biological target: Mitogen-activated protein kinase kinase kinase 13 (Homo sapiens, UniProt O43283); test: LZK(M313LGRJ) Takeda global kinase panel
# [18] = biological target: Mitogen-activated protein kinase kinase kinase 9 (Homo sapiens, UniProt P80192); test: MLK1(M3K9LGF1) Takeda global kinase panel
# [19] = biological target: Mitogen-activated protein kinase 15 (Homo sapiens, UniProt Q8TD08); test: ERK7(MP15LGY1) Takeda global kinase panel
# [20] = biological target: Mitogen-activated protein kinase 6 (Homo sapiens, UniProt Q16659); test: ERK3(MAP6LHY1) Takeda global kinase panel
# [21] = biological target: High affinity nerve growth factor receptor (Homo sapiens, UniProt P04629); test: TRKA(NTR1LGN1) Takeda global kinase panel
# [22] = biological target: NUAK family SNF1-like kinase 2 (Homo sapiens, UniProt Q9H093); test: NuaK2(NUA2LHY1) Takeda global kinase panel
# [23] = biological target: Serine/threonine-protein kinase PAK 6 (Homo sapiens, UniProt Q9NQU5); test: PAK6(PAK6CGY1) Takeda global kinase panel
# [24] = biological target: Platelet-derived growth factor receptor beta (Homo sapiens, UniProt P09619); test: PDGFRbeta(PDGBIHC1) Takeda global kinase panel
# [25] = biological target: Protein kinase C theta type (Homo sapiens, UniProt Q04759); test: PKCtheta(PRKQLGM5) Takeda global kinase panel
# [26] = biological target: cAMP-dependent protein kinase catalytic subunit PRKX (Homo sapiens, UniProt P51817); test: PRKX(PRKXLGH5) Takeda global kinase panel
# [27] = biological target: Receptor-interacting serine/threonine-protein kinase 2 (Homo sapiens, UniProt O43353); test: RIPK2(RIP2LGI1) Takeda global kinase panel
# [28] = biological target: Ribosomal protein S6 kinase alpha-1 (Homo sapiens, UniProt Q15418); test: RSK1 [p90RSK(R6A2CGE1)] Takeda global kinase panel
# [29] = biological target: Ribosomal protein S6 kinase alpha-4 (Homo sapiens, UniProt O75676); test: MSK2(R6A4LGRJ) Takeda global kinase panel
# [30] = biological target: Serine/threonine-protein kinase TAO2 (Homo sapiens, UniProt Q9UL54); test: TAO2(TAO2LGF1) Takeda global kinase panel
# [31] = biological target: Tyrosine-protein kinase Tec (Homo sapiens, UniProt P42680); test: TEC(TEC1CGD1) Takeda global kinase panel
# [32] = biological target: Phosphatidylinositol 4,5-bisphosphate 3-kinase catalytic subunit beta isoform (Homo sapiens, UniProt P42338); test: PIK3CB(PI3BCGRK) Takeda global kinase panel
# [33] = biological target: 5-hydroxytryptamine receptor 2A (Homo sapiens, UniProt P28223); conditions: Compound concentration 10.0 uM
# [34] = biological target: 5-hydroxytryptamine receptor 2C (Homo sapiens) (UniProt P28335); conditions: Compound concentration 10.0 uM
# [35] = biological target: Sodium-dependent dopamine transporter (Homo sapiens) (UniProt Q01959); conditions: Compound concentration 10.0 uM
# [36] = biological target: Sigma intracellular receptor 2 (Homo sapiens, UniProt Q5BJF2); conditions: Compound concentration 10.0 uM
# [37] = biological target: Adenosine receptor A1 (Homo sapiens) (UniProt P30542); conditions: Compound concentration 10.0 uM
# [38] = biological target: GABA-A receptor; anion channel (Rattus norvegicus) (UniProt O09028+P15431+P18506+P18508+P19969+P20236+P23574+P23576+P28471+P28473+P30191+P62813+P63079+P63138+Q91ZM7+Q9ES14); conditions: Compound concentration 10.0 uM
# [39] = biological target: Histamine H2 receptor (Homo sapiens) (UniProt P25021); conditions: Compound concentration 10.0 uM
# [40] = biological target: Kappa-type opioid receptor (Homo sapiens) (UniProt P41145); conditions: Compound concentration 10.0 uM
# Chain of Tyrosine-protein kinase Lck (P06239 whole entry): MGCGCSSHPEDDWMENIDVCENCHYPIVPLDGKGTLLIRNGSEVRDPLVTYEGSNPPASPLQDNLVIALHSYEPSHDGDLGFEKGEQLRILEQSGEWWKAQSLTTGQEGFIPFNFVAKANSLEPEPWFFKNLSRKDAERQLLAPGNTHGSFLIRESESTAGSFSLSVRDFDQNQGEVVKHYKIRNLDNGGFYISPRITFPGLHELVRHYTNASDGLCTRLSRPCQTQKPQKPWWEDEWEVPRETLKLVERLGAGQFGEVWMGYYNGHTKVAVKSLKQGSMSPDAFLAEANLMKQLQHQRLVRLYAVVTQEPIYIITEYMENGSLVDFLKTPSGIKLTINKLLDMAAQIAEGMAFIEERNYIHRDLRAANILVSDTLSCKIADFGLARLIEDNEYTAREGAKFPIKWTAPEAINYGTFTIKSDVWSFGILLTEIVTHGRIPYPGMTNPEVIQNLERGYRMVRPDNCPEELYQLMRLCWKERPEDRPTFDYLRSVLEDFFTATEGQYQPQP
# Chain of Serine/threonine-protein kinase MRCK alpha (Q5VT25 whole entry): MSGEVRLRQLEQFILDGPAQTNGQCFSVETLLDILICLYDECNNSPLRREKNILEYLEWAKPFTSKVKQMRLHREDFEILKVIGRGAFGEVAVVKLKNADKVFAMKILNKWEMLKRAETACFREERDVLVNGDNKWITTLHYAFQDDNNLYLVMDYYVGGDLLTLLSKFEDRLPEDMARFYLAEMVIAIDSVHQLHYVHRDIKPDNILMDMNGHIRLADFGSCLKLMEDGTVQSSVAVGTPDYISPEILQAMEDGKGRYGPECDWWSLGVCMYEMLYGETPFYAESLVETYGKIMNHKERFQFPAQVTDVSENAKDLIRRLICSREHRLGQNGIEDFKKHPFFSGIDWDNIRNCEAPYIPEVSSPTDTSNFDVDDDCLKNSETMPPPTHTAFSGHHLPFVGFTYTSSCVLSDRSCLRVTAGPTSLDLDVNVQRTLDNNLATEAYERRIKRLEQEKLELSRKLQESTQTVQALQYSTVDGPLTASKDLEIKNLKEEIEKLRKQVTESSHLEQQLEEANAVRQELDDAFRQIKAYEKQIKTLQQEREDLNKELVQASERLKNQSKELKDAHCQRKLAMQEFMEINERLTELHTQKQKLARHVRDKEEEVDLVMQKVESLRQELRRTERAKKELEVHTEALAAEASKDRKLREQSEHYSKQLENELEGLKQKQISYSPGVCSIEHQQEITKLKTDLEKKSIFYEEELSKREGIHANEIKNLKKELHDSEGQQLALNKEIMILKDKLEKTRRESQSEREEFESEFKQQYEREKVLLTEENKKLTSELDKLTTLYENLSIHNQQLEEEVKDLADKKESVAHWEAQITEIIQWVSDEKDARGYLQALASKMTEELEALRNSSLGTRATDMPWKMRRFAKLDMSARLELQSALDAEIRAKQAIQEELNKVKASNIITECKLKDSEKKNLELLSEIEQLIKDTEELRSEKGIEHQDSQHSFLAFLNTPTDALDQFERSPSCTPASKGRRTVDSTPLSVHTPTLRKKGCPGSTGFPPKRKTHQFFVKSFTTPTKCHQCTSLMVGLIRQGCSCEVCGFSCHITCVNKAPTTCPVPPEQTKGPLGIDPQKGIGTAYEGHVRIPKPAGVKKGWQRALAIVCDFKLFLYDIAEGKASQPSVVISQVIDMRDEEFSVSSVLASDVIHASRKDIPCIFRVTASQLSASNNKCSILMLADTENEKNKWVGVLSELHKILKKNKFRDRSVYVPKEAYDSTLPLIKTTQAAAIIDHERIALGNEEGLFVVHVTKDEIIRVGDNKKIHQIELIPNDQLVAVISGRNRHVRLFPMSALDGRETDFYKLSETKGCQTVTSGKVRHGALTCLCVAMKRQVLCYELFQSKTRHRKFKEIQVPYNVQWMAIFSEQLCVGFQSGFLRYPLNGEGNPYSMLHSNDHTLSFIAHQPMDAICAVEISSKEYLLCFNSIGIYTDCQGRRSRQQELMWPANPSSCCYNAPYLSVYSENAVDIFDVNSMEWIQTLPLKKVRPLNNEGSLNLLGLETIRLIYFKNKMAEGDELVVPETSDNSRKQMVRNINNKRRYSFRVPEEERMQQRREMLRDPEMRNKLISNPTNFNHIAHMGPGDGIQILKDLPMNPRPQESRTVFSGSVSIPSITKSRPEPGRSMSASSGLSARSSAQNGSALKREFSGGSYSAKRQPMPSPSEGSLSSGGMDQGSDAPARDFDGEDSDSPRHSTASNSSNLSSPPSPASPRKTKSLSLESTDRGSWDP
# Chain of Ephrin type-A receptor 1 (P21709 whole entry): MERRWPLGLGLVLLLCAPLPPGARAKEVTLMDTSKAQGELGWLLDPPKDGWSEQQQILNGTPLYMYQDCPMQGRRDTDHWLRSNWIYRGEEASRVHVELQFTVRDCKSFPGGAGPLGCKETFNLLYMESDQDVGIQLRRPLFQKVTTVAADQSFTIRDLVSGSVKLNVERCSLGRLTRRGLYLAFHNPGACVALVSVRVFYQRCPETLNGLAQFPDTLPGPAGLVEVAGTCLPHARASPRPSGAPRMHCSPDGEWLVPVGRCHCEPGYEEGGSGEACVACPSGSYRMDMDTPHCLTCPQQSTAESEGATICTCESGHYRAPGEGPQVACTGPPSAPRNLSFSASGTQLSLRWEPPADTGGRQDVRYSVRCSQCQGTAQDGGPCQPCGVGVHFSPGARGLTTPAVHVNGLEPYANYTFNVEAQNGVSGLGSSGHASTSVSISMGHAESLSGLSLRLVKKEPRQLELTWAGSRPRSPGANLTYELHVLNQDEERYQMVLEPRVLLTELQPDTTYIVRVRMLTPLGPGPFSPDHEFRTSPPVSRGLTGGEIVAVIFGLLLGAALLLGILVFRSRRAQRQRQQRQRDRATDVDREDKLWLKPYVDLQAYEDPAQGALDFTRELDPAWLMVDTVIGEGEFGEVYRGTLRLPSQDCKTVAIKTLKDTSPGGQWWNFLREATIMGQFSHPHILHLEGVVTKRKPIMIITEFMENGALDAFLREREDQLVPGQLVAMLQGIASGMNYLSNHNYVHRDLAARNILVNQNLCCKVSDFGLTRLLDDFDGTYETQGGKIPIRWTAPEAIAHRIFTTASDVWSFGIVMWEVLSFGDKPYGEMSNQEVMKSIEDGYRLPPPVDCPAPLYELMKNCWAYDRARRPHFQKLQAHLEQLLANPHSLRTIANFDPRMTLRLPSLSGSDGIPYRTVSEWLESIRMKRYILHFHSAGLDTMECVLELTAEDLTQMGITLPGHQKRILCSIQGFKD
# Chain of Ephrin type-B receptor 4 (P54760 whole entry): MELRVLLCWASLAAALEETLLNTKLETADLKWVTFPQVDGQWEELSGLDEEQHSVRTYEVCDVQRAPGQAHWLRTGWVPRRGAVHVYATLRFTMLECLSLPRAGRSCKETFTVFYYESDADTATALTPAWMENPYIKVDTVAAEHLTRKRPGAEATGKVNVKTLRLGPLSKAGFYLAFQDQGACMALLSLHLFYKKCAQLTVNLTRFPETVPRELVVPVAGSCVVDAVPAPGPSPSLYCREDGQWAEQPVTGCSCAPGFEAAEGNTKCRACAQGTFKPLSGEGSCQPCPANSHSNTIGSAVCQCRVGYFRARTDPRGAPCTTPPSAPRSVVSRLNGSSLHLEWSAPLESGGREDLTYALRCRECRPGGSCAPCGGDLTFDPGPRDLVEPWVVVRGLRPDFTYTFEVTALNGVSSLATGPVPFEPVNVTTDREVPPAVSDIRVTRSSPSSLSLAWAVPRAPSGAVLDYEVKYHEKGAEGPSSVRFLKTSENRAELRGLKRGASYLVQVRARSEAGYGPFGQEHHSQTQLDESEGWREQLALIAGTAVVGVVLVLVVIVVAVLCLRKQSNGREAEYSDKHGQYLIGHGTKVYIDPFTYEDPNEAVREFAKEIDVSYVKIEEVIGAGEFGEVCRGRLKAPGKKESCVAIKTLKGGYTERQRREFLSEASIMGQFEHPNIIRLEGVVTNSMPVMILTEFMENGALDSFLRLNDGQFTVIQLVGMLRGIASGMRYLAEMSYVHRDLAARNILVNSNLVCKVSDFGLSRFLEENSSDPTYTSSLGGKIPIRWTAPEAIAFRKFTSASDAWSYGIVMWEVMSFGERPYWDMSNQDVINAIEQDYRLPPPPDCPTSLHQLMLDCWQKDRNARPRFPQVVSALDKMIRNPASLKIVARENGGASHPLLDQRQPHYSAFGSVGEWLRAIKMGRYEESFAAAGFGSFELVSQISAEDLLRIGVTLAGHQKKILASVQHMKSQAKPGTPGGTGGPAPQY
# Chain of Ribosomal protein S6 kinase alpha-4 (O75676 whole entry): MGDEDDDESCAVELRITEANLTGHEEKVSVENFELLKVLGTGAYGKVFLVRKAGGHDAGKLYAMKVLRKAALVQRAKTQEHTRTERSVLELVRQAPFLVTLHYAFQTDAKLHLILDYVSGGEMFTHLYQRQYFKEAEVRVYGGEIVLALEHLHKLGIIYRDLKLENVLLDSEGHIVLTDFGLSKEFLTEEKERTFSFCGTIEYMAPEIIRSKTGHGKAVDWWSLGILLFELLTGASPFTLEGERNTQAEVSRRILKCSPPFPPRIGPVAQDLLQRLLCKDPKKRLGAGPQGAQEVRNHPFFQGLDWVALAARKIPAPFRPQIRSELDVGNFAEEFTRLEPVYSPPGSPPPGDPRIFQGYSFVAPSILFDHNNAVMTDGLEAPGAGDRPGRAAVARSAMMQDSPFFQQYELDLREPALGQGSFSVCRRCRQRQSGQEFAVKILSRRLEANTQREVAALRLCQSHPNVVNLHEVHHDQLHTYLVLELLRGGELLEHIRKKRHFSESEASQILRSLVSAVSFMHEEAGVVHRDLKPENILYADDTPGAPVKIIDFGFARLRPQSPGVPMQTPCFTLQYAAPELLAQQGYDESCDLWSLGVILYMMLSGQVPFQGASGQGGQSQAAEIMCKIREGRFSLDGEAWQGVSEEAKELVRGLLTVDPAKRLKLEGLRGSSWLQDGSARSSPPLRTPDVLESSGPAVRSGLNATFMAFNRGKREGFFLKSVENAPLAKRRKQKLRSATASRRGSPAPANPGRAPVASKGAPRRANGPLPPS
structure (smiles),measurement,setting,value
CN1C(=O)[C@@H](N2CCc3c(nn(Cc4ccccc4)c3Br)C2=O)COc2ccccc21 [TP-030-2],"inhibition at 90 min, 10 µM",[1],29% (not active)
same,Ki,[2],0.43 nM (active)
same,inhibition,[3],-7%
same,IC50,[4],1000 nM
same,IC50,[5],1000 nM
same,IC50,[6],1000 nM
same,IC50,[7],1000 nM
same,IC50,[8],1000 nM
same,IC50,[9],1000 nM
same,IC50,[10],1000 nM
same,IC50,[11],1000 nM
same,IC50,eIF-2-alpha kinase GCN2,1000 nM
same,IC50,Ephrin type-A receptor 1,1000 nM
same,IC50,Ephrin type-B receptor 4,1000 nM
same,IC50,[12],1000 nM
same,IC50,[13],1000 nM
same,IC50,[14],1000 nM
same,IC50,[15],1000 nM
same,IC50,[16],1000 nM
same,IC50,[17],1000 nM
same,IC50,[18],1000 nM
same,IC50,[19],1000 nM
same,IC50,[20],1000 nM
same,IC50,[21],1000 nM
same,IC50,[22],1000 nM
same,IC50,[23],1000 nM
same,IC50,[24],1000 nM
same,IC50,[25],1000 nM
same,IC50,[26],1000 nM
same,IC50,[27],1000 nM
same,IC50,[28],1000 nM
same,IC50,[29],1000 nM
same,IC50,[30],1000 nM
same,IC50,[31],1000 nM
same,IC50,[32],1000 nM
same,inhibition,[33],50.6%
same,inhibition,[34],2.4%
same,inhibition,[35],-8.33%
same,inhibition,[36],53.9%
same,inhibition,[37],11%
same,inhibition,[38],24%
same,inhibition,[39],-8%
same,inhibition,[40],3%
